Results: paper PMC11206290, “Study of the Lipophilicity and ADMET Parameters of New Anticancer Diquinothiazines with Pharmacophore Substituents” (Pharmaceuticals, 2024)

What was measured:
[1] = RP-TLC lipophilicity (RP-18 plates, acetone–TRIS buffer pH 7.4); settings: for C0: C0 = −RM0/b; for RM0: RP-18, acetone–TRIS buffer pH 7.4, extrapolated to zero acetone concentration; for b / -b: slope of RM = RM0 + bC; for b: compounds 1–15; for -b: standards I–V
Description: (§1) RP-18 plates were used as the stationary phase, while organic modifiers containing acetone were used as the mobile phase. The linear relationship between RM0 and acetone concentration was determined on the basis of Equation (2) (Table 2). In addition to this, thanks to the relationship observed between RM0 and the slope of these linear plots (b), the lipophilicity parameter C0 was also determined (Table 2).
(§2) All chromatographic experiments were performed on a silica gel 60 RP-18 F254S (10 cm × 10 cm) RP-TLC plate (Merck, Darmstadt, Germany). The mobile phase was prepared by mixing the respective amount of aqueous TRIS (tris(hydroxymethyl)aminomethane) buffer, pH = 7.4 (ionic strength 0.2 M), to meet physiological conditions and acetone in a range from 50 to 80% (v/v) in increments of 5%. […] Before plate development, the chromatographic chambers were saturated with the mobile phase for 0.5 h. […] Each chromatographic experiment was run in triplicate, and then mean values of the retardation factor, i.e., RF values, were used to determine the RMW values of the compounds.
(§3) Next, the chromatographic data in the form of RM0 and coefficient b were used to calculate the lipophilicity parameter C0 [56] from the following Equation (3):(3) C0=−RM0/b

[2] = test system: human lung carcinoma A549; design: method as in PMID 36014495; settings: A549 ref 25; cited from earlier work
NHDF cells = test system: NHDF cells; design: method as in PMID 36014495; settings: NHDF cells at IC50 doses against A549 or H1299 cells ref 25; cited from earlier work
[3] = test system: non-small lung carcinoma H1299; design: method as in PMID 36014495; settings: H1299 ref 25; cited from earlier work
BEAS-2B cells = test system: BEAS-2B cells; design: method as in PMID 36014495; settings: BEAS-2B cells at IC50 doses against A549 or H1299 cells ref 25; cited from earlier work
[4] = test system: lung cancer A549 cell line; design: method as in PMID 30981160; settings: A549 cell line ref 24; cited from earlier work
BAX expression = test system: BAX expression; design: method as in PMID 30981160; settings: RT-QPCR, cancer cell lines ref 24; cited from earlier work
BCL-2 expression = test system: BCL-2 expression; design: method as in PMID 30981160; settings: RT-QPCR, A549 and SNB-19 ref 24; cited from earlier work
[5] = test system: glioblastoma SNB-19 cell line; design: method as in PMID 30981160; settings: SNB-19 cell line ref 24; cited from earlier work

Description for physchem: as §1, §2, §3

Row | Compound | chromatographic logP (physchem) | C0 [1] | RM0 [1] | b [1] | also measured
1 | CCN(CC)CCN1c2nc3ccccc3cc2Sc2ccc3cccnc3c21 [Compound 11, 14-(2'-Diethylaminoethyl)diquino[3,2-b;8 ',7'-e]thiazine] | 4.84 | 0.7579 | 3.60 | −4.75 | –
2 | CN(C)CCCN1c2cnc3ccccc3c2Sc2cc3ccccc3nc21 [Compound 2, 7-(3'-Dimethylaminopropyl)diquino[3,2-b;3 ',4'-e]thiazine] | 4.08 | 0.7359 | 3.01 | −4.09 | In vitro anticancer activity [2]: significant in vitro anticancer activity; Lethal effect (NHDF cells): weak lethal effect; In vitro anticancer activity [3]: significant in vitro anticancer activity; Lethal effect (BEAS-2B cells): weak lethal effect; IC50 [4]: 0.3 µM
3 | CN(C)CCCN1c2nc3ccccc3cc2Sc2ccc3cccnc3c21 [Compound 12, 14-(3'-Dimethylaminopropyl)diquino[3,2-b;8 ',7'-e]thiazine] | 4.28 | 0.7458 | 3.17 | −4.25 | –
4 | c1ccc2cc3ccccc3cc2c1 [Standard IV, anthracene, reference compound] | – | – | 3.33 | – | -b [1]: 0.0412
5 | O=C(O)c1ccccc1 [Standard II, benzoic acid, reference compound] | – | – | 1.16 | – | -b [1]: 0.0247
6 | Clc1ccc(C(c2ccc(Cl)cc2)C(Cl)(Cl)Cl)cc1 [Standard V, p,p′-DDT, reference compound] | – | – | 4.69 | – | –
7 | c1ccc2nc3c(cc2c1)Sc1ccc2cccnc2c1N3CCN1CCCC1 [Compound 13, 14-(1'-Pyrolidinylethyl)diquino[3,2-b;8 ',7'-e]thiazine] | 4.36 | 0.7672 | 3.23 | −4.21 | –
8 | CC(=O)Nc1ccccc1 [Standard I, acetanilide, reference compound] | – | – | 0.78 | – | –
9 | CN1CCCCC1CCN1c2cnc3ccccc3c2Sc2cc3ccccc3nc21 (stereo not drawn) [Compound 5, 7-(1'-M ethyl-2 '-piperydinylethyl)diquino[3,2-b;3 ',4'-e]thiazine] | 4.89 | 0.7082 | 3.64 | −5.14 | –
10 | c1ccc2nc3c(cc2c1)Sc1c(cnc2ccccc12)N3CCN1CCCC1 [Compound 3, 7-(1'-Pyrolidinylethyl)diquino[3,2-b;3 ',4'-e]thiazine] | – | 0.7210 | 3.05 | −4.23 | –
11 | c1ccc2nc3c(cc2c1)Sc1c(cnc2ccccc12)N3CCN1CCCCC1 [Compound 4, 7-(1'-Piperidinylethyl)diquino[3,2-b;3 ',4'-e]thiazine] | 4.68 | 0.7117 | 3.48 | −4.89 | –

Further lines, with some results ahead:

Row | chromatographic logP (physchem) | C0 [1] | RM0 [1] | b [1] | Compound | also measured
12 | 4.95 | 0.7562 | 3.69 | −4.88 | c1ccc2nc3c(cc2c1)Sc1c(ccc2ncccc12)N3CCN1CCCCC1 [Compound 9, 7-(1'-Piperidinylethyl)diquino[3,2-b;6 ',5'-e]thiazine] | –
13 | 4.94 | 0.7588 | 3.68 | −4.85 | CCN(CC)CCN1c2ccc3ncccc3c2Sc2cc3ccccc3nc21 [Compound 6, 7-(2'-Diethylaminoethyl)diquino[3,2-b;6 ',5'-e]thiazine] | –
14 | 4.85 | 0.7697 | 3.61 | −4.69 | c1ccc2nc3c(cc2c1)Sc1ccc2cccnc2c1N3CCN1CCCCC1 [Compound 14, 14-(1'-Piperidinylethyl)diquino[3,2-b;8 ',7'-e]thiazine] | –
15 | 4.64 | 0.7233 | 3.45 | −4.77 | CCN(CC)CCN1c2cnc3ccccc3c2Sc2cc3ccccc3nc21 [Compound 1, 7-(2'-Diethylaminoethyl)diquino[3,2-b;3 ',4'-e]thiazine] | –
16 | 4.46 | 0.7627 | 3.31 | −4.34 | CN(C)CCCN1c2ccc3ncccc3c2Sc2cc3ccccc3nc21 [Compound 7, 7-(3'-Dimethylaminopropyl)diquino[3,2-b;6 ',5'-e]thiazine] | –
17 | 5.12 | 0.7625 | 3.82 | −5.01 | CN1CCCCC1CCN1c2nc3ccccc3cc2Sc2ccc3cccnc3c21 (stereo not drawn) [Compound 15, 14-(1'-M ethyl-2 '-piperydinylethyl)diquino[3,2-b;8 ',7'-e]thiazine] | –
18 | – | 0.7565 | 3.48 | −4.60 | c1ccc2nc3c(cc2c1)Sc1c(ccc2ncccc12)N3CCN1CCCC1 [Compound 8, 7-(1'-Pyrolidinylethyl)diquino[3,2-b;6 ',5'-e]thiazine] | Expression of BAX (BAX expression): markedly reduced; Expression of BCL-2 (BCL-2 expression): markedly reduced; IC50 [5]: 0.3 µM
19 | 5.13 | 0.7599 | 3.83 | −5.04 | CN1CCCCC1CCN1c2ccc3ncccc3c2Sc2cc3ccccc3nc21 (stereo not drawn) [Compound 10, 7-(1'-M ethyl-2 '-piperydinylethyl)diquino[3,2-b;6 ',5'-e]thiazine] | –
